Experimental data from ChEMBL document CHEMBL1139717, “Solid-phase combinatorial approach for the optimization of soluble epoxide hydrolase inhibitors” (Bioorg Med Chem Lett, 2006).

Tests used:
[1] = molecular target: T1, Bifunctional epoxide hydrolase 2 (Homo sapiens) (UniProt P34913); experiment: Inhibition of human recombinant soluble epoxide hydrolase at 100 nM by end-point fluorescent assay
T1 sequence (whole entry): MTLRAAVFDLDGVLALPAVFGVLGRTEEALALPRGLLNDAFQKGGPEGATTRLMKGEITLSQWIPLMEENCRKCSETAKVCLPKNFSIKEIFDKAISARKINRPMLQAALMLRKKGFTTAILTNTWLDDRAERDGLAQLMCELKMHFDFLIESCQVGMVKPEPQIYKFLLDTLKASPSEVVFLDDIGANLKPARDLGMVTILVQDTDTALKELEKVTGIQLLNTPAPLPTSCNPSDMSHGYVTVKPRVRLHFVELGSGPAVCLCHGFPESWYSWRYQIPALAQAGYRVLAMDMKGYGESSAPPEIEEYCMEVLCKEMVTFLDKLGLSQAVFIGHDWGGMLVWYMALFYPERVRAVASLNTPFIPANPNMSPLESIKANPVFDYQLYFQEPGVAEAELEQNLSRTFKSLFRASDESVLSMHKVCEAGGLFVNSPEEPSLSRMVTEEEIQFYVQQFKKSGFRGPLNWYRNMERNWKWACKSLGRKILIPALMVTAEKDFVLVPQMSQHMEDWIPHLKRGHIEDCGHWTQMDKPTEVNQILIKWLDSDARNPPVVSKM

[2] = molecular target: T2, Bifunctional epoxide hydrolase 2 (Homo sapiens, UniProt P34913); experiment: Inhibition of human recombinant soluble epoxide hydrolase by kinetic fluorescent assay
T2 sequence (P34913 whole entry): T1 sequence (whole entry)

Row | SMILES | inhibition [1] [%] | IC50 [2] [nM]
1 | O=C(Nc1ccc(OC(F)(F)F)cc1)N[C@H]1CC[C@@H](Oc2ccc(F)cc2)CC1 | 84 | 
2 | O=C(Nc1c(Cl)cccc1Cl)N[C@H]1CC[C@@H](Oc2ccc(F)cc2)CC1 | 1 | 940
3 | CC(C)c1cccc(C(C)C)c1NC(=O)N[C@H]1CC[C@@H](Oc2ccc(F)cc2)CC1 | 5 | 50500
4 | Cc1cccc(C)c1NC(=O)N[C@H]1CC[C@@H](Oc2ccc(F)cc2)CC1 | 4 | 1200
5 | C[C@@H](NC(=O)NC12CC3CC(CC(C3)C1)C2)c1ccccc1 | 10 | 100
6 | CN(C)c1cccc2c(S(=O)(=O)NCCNC(=O)NC34CC5CC(CC(C5)C3)C4)cccc12 | 19 | 30
7 | O=C(Nc1cccc(C(=O)O)c1)N[C@H]1CC[C@@H](Oc2ccc(F)cc2)CC1 |  | 590
8 | O=C(Nc1ccccc1OC(F)(F)F)N[C@H]1CC[C@@H](Oc2ccc(F)cc2)CC1 | 2 | 100
9 | COC(=O)c1cccc(NC(=O)N[C@H]2CC[C@@H](Oc3ccc(F)cc3)CC2)c1 | 72 | 2
10 | COC(=O)c1ccc(NC(=O)N[C@H]2CC[C@@H](Oc3ccc(F)cc3)CC2)cc1 | 62 | 2.9

The remaining lines, values ahead:

Row | inhibition [1] [%] | IC50 [2] [nM] | SMILES
11 | 81 | 0.7 | O=C(Nc1ccc(Cl)cc1)N[C@H]1CC[C@@H](Oc2ccc(F)cc2)CC1
12 | 82 | 1.2 | O=C(Nc1ccc(C(F)(F)F)cc1)N[C@H]1CC[C@@H](Oc2ccc(F)cc2)CC1
13 | 76 | 1 | O=C(Nc1ccc(I)cc1)N[C@H]1CC[C@@H](Oc2ccc(F)cc2)CC1
14 | 87 | 0.5 | O=C(NC1CCCCCC1)N[C@H]1CC[C@@H](Oc2ccc(F)cc2)CC1
15 | 80 | 0.6 | O=C(Nc1ccc(Br)cc1)N[C@H]1CC[C@@H](Oc2ccc(F)cc2)CC1
